Reference: BindingDB's records for patent US20240002393 (Hoffmann-La Roche, 2024)

How the values were obtained:
[1] = target: T1, Gamma-aminobutyric acid receptor subunit alpha-2/beta-2/gamma-1 (Human, UniProt P47869+P47870+Q8N1C3); assay: Electrophysiology Assay
T1 sequence (Q8N1C3 whole entry): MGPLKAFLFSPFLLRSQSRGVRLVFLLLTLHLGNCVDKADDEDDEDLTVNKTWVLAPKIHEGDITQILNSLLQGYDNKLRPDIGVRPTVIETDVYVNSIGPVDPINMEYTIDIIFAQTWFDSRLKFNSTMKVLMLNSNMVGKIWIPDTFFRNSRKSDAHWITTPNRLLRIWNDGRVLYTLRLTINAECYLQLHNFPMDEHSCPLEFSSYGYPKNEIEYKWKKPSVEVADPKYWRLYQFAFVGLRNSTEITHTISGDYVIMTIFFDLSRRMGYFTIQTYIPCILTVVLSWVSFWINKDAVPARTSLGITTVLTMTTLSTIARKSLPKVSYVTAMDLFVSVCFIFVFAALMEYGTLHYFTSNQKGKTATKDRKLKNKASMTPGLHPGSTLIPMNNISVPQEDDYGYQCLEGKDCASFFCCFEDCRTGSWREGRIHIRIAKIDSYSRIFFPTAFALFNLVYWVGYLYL
T1 sequence (P47869 whole entry): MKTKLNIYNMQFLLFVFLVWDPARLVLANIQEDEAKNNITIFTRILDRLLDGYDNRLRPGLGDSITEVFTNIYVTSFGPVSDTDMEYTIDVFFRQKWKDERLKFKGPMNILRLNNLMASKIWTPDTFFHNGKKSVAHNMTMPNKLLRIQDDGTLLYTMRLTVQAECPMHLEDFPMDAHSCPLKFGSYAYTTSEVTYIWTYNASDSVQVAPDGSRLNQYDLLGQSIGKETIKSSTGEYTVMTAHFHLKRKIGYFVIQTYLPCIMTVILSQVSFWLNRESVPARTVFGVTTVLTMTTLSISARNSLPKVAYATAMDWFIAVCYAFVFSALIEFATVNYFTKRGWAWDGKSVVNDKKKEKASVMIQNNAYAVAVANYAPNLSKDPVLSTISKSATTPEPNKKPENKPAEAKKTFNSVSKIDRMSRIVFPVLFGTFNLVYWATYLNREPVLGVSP
T1 sequence (P47870 whole entry): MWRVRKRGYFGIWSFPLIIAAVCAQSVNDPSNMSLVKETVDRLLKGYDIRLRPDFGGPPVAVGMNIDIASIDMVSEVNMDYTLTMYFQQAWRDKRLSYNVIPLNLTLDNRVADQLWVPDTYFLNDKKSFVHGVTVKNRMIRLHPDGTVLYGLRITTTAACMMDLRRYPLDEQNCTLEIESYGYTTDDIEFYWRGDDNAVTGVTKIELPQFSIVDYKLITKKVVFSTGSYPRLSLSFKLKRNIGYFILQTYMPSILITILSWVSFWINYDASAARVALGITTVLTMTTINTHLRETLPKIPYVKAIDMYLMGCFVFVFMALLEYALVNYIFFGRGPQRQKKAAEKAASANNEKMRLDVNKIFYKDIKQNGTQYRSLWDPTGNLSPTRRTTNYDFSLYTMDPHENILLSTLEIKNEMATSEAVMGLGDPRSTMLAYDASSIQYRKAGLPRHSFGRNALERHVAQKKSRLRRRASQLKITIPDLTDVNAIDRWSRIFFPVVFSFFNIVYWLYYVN
Method: Table 2: Electrophysiological experiments were performed using the Roboocyte instrument (MultiChannelSystems, Reutlingen, Germany) on days 3 to 5 after the micro-injection of mRNA. During the experiment the oocytes were constantly superfused by a solution containing (in mM) NaCl 90, KCl 1, HEPES 5, MgCl2 1 CaCl2 1 (pH 7.4). Oocytes were impaled by two glass microelectrodes (resistance: 0.5-0.8 MΩ) which were filled with a solution containing KCl 1M+K-acetate 1.5 M and voltage-clamped to −80 mV. The recordings were performed at room temperature using the Roboocyte two-electrode voltage clamp system (Multichannelsystem). After an initial equilibration period of 1.5 min GABA was added for 1.5 min at a concentration evoking approximately 20% of a maximal current response (EC20). After another rest interval of 2.5 min GABA was again added evoking a response of similar amplitude and shape. […] Current traces were recorded at a digitization rate of 10 Hz during and shortly before and after the GABA application.

[2] = target: T2, Gamma-aminobutyric acid receptor subunit alpha-1/beta-3/gamma-2 (Homo sapiens, UniProt P14867+P18507+P28472)
T2 sequence (P14867 whole entry): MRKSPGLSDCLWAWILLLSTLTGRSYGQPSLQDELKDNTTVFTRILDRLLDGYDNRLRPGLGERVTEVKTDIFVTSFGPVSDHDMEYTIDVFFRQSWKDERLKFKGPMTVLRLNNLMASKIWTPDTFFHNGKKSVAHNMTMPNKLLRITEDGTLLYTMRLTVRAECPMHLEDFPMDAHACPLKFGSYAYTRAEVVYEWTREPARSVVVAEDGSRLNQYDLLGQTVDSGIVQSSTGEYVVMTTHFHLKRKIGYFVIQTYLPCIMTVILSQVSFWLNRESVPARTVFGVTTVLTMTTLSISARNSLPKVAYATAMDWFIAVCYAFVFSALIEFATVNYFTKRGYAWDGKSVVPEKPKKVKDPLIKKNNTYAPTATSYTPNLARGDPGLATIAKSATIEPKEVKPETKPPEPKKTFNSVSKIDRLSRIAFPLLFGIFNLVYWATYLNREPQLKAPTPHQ
T2 sequence (P18507 whole entry): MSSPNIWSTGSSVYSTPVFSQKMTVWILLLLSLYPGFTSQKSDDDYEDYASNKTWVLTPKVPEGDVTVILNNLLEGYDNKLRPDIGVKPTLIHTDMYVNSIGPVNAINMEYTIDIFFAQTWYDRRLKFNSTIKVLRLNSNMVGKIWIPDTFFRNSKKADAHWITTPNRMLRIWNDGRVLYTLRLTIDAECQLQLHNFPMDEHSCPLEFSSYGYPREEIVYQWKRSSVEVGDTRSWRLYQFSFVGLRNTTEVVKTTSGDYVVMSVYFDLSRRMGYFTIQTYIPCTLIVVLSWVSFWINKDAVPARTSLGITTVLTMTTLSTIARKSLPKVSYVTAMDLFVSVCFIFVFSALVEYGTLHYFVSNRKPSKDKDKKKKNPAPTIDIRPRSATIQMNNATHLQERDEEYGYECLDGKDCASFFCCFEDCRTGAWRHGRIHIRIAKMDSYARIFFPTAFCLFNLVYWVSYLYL
T2 sequence (P28472 whole entry): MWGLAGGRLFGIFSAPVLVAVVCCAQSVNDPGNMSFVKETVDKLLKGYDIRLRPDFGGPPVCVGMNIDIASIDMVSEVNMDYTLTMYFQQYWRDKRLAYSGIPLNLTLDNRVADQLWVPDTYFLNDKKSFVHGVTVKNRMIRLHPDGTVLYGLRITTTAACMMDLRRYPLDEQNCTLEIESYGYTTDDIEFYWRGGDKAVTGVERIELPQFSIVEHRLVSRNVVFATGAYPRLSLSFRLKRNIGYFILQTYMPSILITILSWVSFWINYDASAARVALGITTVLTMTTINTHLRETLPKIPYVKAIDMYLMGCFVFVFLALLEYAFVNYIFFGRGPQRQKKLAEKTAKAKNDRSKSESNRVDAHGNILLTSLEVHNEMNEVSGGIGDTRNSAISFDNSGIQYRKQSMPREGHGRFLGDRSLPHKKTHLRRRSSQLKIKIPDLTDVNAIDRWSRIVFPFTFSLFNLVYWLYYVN

CCc1nnc2n1-c1ccc(C(F)(F)F)c(Cl)c1C(c1c(F)cccc1F)=N[C@H]2C [US20240002393, Example 108]
Ki [1]: 47 nM | Ki [2]: 2370 nM
